Measured values from patent US10612068B2, “Culture medium containing a spore germination inhibiting or delaying compound” (BIOMERIEUX, priority 2008, dated 2020).

How the values were obtained:
[1] = test system: Bacillus licheniformis spores; conditions: L-alanine dehydrogenase dependent first step; cited from earlier work
[2] = test system: Bacillus (Bacillus licheniformis, Bacillus thuringiensis/cereus) present in sporulated form; test: Milk powder samples not contaminated with Staphylococcus aureus incubated in culture medium with or without D-alanine; fluorescence reading and MPN count of nonspecific growth; type: cell-based
Experimental: The example described hereinafter illustrates the inhibiting effect of D-alanine on the […] of microorganisms of Bacillus type (such as Bacillus licheniformis, Bacillus thuringiensis/cereus).
To do this, 59 samples of milk powder products liable to contain Bacillus microorganisms, also not contaminated with Staphylococcus aureus, were tested.
In order to study the inhibiting effect of D-alanine, two culture media were tested:
Medium 1: culture medium without D-alanine,
Medium 2: culture medium in the presence of D-alanine at a final concentration in the medium of between 0.05 and 0.1 mol/l (final concentration in the medium).
The composition of said culture medium is the following (in g/l, final concentration in the medium with or without D-alanine):
The samples were prepared according to ISO standard 8261: 2001 (concerning milk and milk products and relating to the “general guidelines for the preparation of test samples, of the stock suspension and of the decimal dilutions for the purpose of microbiological examination”) according to the following steps: • a) 10 grams of the sample are weighed out and placed in a Stomacher® bag, • b) 90 ml of tryptone salt diluent preheated to 45° C. are added so as to obtain an initial 1/10 dilution of the sample, • c) grinding is carried out using a Stomacher® machine for one minute, • d) the Stomacher® bag is placed in a water bath and stirred for 5 minutes at 45° C., • e) 1 ml of the sample (diluted to 1/10) is taken and placed in 3 ml of culture medium so as to obtain a 1/40 dilution, • f) incubation is carried out for a period of between 24 and 27 hours at a temperature of 37° C., • g) the culture medium is read by fluorescence and the level of contamination of the sample with microorganisms is determined by means of the most probable number technique.
The reading consists of a measurement of the fluorescence of the culture medium obtained after incubation. A large variation in the fluorescence values attests to acidification of the medium, said acidification itself resulting from the growth of one or more microorganisms.
The CV fluorescence values were calculated on the basis of the samples tested (not contaminated with Staphylococcus aureus).
The higher the CV, the greater the acidification of the medium, thereby attesting to growth of the microorganisms present in the culture medium. Conversely, the lower the CV, the less the acidification, thereby reflecting less growth of the microorganisms. The specificity of the medium is therefore better and the risk of false positives is therefore less (false-positive result linked to the acidification of the medium by a bacterium of a microorganism other than Staphylococcus aureus). […]

Structure (SMILES)	inhibition of the first step of spore germination [1]	% of samples with MPN count <10 (good specificity) ([2]; 59 milk powder samples, D-alanine 0.05-0.1 mol/l, 24-27 hours at 37° C.) [%]	rate of false-positive results ([2]; 59 milk powder samples, false positives related to growth of Bacillus) [%]	highest false-positive count result ([2]; 59 milk powder samples, with the use of D-alanine) [CFU/gram]	effect on CV values obtained after incubation of the medium ([2]; D-alanine in the culture medium vs. medium without)
CCCCCCCCO [octanol]	inhibited	–	–	–	–
C[C@@H](N)C(=O)O [D-alanine]	inhibited	89.83	10.17	≤ 50	greatly reduce the CV values
CCOC(=O)C(C)=O [ethyl pyruvate]	inhibited	–	–	–	–
